Experimental data from patent US9643946B2, “Tricyclic compound and use thereof” (SK CHEMICALS CO., LTD., priority 2013, dated 2017).

Experiments:
male ZFDM rats = assay: Hypoglycemic rate after oral glucose loading in rats; type: in vivo, rat; conditions: oral 0.1 to 30 mg/kg one hour before glucose loading (1.5 g/kg), blood glucose AUC 0 to 120 minutes versus control
Method: Measurement of Hypoglycemic Rate in Rats
An effect of the compound according to one exemplary embodiment of the present invention on blood glucose inhibition after glucose loading was examined in male ZFDM rats (Japan SLC, Inc.).
Specifically, male ZFDM rats (7 week-old) pre-fed for a week were fasted overnight, and used as an animal to be tested. A test compound was prepared into a 0.5% methylcellulose suspension, which was orally administered to rats at a dose of 0.1 to 30 mg/kg before an hour of glucose loading (1.5 g/kg). As the control, 0.5% methylcellulose was administered. After the glucose administration, blood was drawn from the rats' tails after 0, 15, 30, 60 and 120 minutes to measure a blood glucose level. The area under the curve (AUC) for compound treatment was calculated using a blood glucose change profile from t=0 to 120 minutes, and a hypoglycemic rate (%) for the control was calculated.

human GPR40 protein = human GPR40 protein (Homo sapiens, UniProt O14842); assay: GPR40 agonist binding inhibition (displacement of 3H-labeled propanoic acid radioligand); conditions: membrane protein including human GPR40, 3H-labeled propanoic acid radioligand, 25° C., 2 hours; read-out: Half maximal inhibitory concentration
Method: Measurement of 50% Inhibitory Concentration (ID50) for GPR40 Agonist Binding
To examine the efficacy of the compounds according to one exemplary embodiment of the present invention in modulating GPR40, the half maximal inhibitory concentrations (IC50) of the compounds according to one exemplary embodiment of the present invention were measured by Microbeta2™ (PerkinElmer Inc.) using a change in radiation dose emitted from ^3H-labeled propanoic acid (i.e., 3-(4-((2,6′-dimethyl-6-((4-(^3H))-phenylmethoxy)biphenyl-3-yl)methoxy)phenyl)propanoic acid), which is a radioactive isotope which binds to a human GPR40 protein, as an indicator.
Specifically, a test compound was prepared by serial dilution with DMSO, and 100 μL of a binding buffer (including 25 mM HEPES (pH 7.5), 5 mM MgCl2, 100 mM NaCl, and 0.1% free fatty acid BSA; Sigma-Aldrich Corp.) was put into each well of a 96-well transparent plate. Thereafter, each of the diluted compound, propanoic acid which was prepared by dissolving propanoic acid in DMSO to a concentration of 500 mM and not labeled with a radioactive isotope, and DMSO was dispensed at 5 μL per well. ^3H-labeled propanoic acid was dissolved in a binding buffer at a concentration of 1 nM and dispensed at 50 μL into the corresponding wells, and a membrane protein including a human GPR40 protein was dissolved in a binding buffer at a concentration of 20 μg/well and dispensed at 100 μL, into the corresponding wells.
After the dispensation was completed, the plate was incubated at a temperature of 25° C. and a rotary speed of 230 rpm for 2 hours while shaking. A human GPR40 complex was transferred to Filtermat A (PerkinElmer Inc.) using a cell harvester (PerkinElmer Inc.), washed 10 times with 50 mM tris-HCl, dried, and then scintillated using Meltilex (PerkinElmer Inc.). Thereafter, an emitted radiation dose was measured using Microbeta2™. The radiation doses emitted from the complex in the well containing 10 mM unlabeled propanoic acid and the complex in the well containing DMSO alone were set as 0% and 100%, respectively. Thus, a change curve for each of the radiation doses was plotted to calculate the half maximal inhibitory concentration of the test compound.

Sequence of human GPR40 protein (O14842 whole entry): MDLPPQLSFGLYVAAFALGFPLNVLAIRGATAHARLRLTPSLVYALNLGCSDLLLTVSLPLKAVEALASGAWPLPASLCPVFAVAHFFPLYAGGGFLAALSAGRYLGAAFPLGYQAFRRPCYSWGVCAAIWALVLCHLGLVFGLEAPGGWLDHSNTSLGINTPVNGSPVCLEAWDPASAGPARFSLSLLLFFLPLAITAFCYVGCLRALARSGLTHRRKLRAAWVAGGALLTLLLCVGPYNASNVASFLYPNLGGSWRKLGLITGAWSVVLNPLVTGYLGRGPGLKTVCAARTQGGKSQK

IC50 (human GPR40 protein) [nM] | SMILES | Hypoglycemic rate (male ZFDM rats) [%]
116 | CS(=O)(=O)CCCOc1ccc2c(c1)CCCc1ccc(CNc3ccc([C@H]4C[C@@H]4C(=O)O)cc3)cc1-2 [Example 6, (1S,2S)-2-(4-(((9-(3-(methylsulfonyl)propoxy)-6,7-dihydro-5H-dibenzo[a,c][7]annulen-2-yl)methyl)amino)phenyl)cyclopropanecarboxylic acid] | 18.0
 | CC#C[C@@H](CC(=O)O)c1ccc(OCc2ccc3c(c2)-c2ccc(OCCCS(C)(=O)=O)cc2CCC3)cc1 [Example 108, (S)-3-(4-((9-(3-(methylsulfonyl)propoxy)-6,7-dihydro-5H-dibenzo[a,c][7]annulen-2-yl)methoxy)phenyl)hex-4-ynoic acid] | 37.5
